This note sets out measurements from paper PMC7250897, “UDP-glucosyltransferase regulates grain size and abiotic stress tolerance associated with metabolic flux redirection in rice” (Nature Communications, 2020).

Data set [1] deals with T1, GSA1^WYJ (Oryza sativa, UniProt Q9AUV3, A246V).
T1 construct: gene Os03g0757500; full-length cDNA in pET21a (NdeI/NotI), E. coli BL21(DE3) pLysS, crude extract; WYJ allele A246, A349
T1 sequence (Q9AUV3 1-457 A246V): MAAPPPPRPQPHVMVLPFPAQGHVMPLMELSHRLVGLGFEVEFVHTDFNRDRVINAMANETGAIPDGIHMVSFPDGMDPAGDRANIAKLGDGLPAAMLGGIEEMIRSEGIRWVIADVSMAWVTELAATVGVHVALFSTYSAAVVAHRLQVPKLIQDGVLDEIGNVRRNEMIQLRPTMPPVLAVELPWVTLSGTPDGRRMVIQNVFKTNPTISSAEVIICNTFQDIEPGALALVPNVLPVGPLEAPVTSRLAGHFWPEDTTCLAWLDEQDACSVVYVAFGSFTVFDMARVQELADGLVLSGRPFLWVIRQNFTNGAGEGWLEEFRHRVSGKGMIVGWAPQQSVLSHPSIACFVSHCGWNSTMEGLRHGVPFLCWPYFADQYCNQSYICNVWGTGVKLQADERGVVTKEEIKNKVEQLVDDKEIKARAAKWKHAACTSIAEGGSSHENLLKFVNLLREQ
Nature of the data set: HPLC glucosyltransferase assay, product peak area. The note with it: 250 μM acceptor, 1.5 mM UDP-glucose, 10 mM MgCl2, glycine-NaOH pH 8.6, 37 °C, 2 h.

The target in data set [2] is T2, GSA1^WYJ (Oryza sativa, UniProt Q9AUV3, A349T).
T2 construct: gene Os03g0757500; full-length cDNA in pET21a (NdeI/NotI), E. coli BL21(DE3) pLysS, crude extract; WYJ allele A246, A349
T2 sequence (Q9AUV3 1-457 A349T): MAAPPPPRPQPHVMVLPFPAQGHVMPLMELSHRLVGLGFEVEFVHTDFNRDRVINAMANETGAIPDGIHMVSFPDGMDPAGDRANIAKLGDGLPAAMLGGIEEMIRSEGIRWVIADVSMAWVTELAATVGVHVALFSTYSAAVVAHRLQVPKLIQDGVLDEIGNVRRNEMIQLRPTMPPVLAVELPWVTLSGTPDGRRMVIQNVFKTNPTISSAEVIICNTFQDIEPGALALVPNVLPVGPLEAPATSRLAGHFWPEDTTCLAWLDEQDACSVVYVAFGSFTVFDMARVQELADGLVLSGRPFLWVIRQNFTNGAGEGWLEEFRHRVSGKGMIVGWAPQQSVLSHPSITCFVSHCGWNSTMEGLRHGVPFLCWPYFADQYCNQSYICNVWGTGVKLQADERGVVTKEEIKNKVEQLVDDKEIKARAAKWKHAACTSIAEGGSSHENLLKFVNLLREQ
Briefly: HPLC glucosyltransferase assay, product peak area. The settings on record: 250 μM acceptor, 1.5 mM UDP-glucose, 10 mM MgCl2, glycine-NaOH pH 8.6, 37 °C, 2 h.

Substrate in data set [3]: O=c1c(O)c(-c2ccc(O)cc2)oc2cc(O)cc(O)c12
Briefly: cells, lysate or membranes. The note with it: sugar acceptor, UDP-glucose as donor, assay buffer 10 mM MgCl2, glycine-NaOH pH 8.6, 37 °C.

Substrate in data set [4]: O=c1ccn([C@@H]2O[C@H](CO[P@@](=O)(O)O[P@@](=O)(O)O[C@H]3O[C@H](CO)[C@@H](O)[C@H](O)[C@H]3O)[C@@H](O)[C@H]2O)c(=O)[nH]1
Briefly: HPLC glucosyltransferase assay, kinetics. The format is biochemical, Oryza sativa. The settings on record: sugar donor, kaempferol as acceptor, 10 mM MgCl2, glycine-NaOH pH 8.6, 37 °C.

Regarding `O=c1c(O)c(-c2ccc(O)cc2)oc2cc(O)cc(O)c12` [kaempferol], the “HPLC glucosyltransferase assay, product peak area” value on GSA1^WYJ [1] is “the glucosyltransferase activity of GSA1^A246V toward kaempferol and sinapyl alcohol was comparable”; at GSA1^WYJ [2], “the glucosyltransferase activity of GSA1^A349T was comparable to that of GSA1^CG14”.

With `COc1cc(/C=C/CO)cc(OC)c1O` [sinapyl alcohol], the “HPLC glucosyltransferase assay, product peak area” value on GSA1^WYJ [1] was “the glucosyltransferase activity of GSA1^A246V toward kaempferol and sinapyl alcohol was comparable”; at GSA1^WYJ [2], “the glucosyltransferase activity of GSA1^A349T was comparable to that of GSA1^CG14”.

B1: GSA1^WYJ (Oryza sativa Japonica Group) (protein)
chain: MAAPPPPRPQPHVMVLPFPAQGHVMPLMELSHRLVGLGFEVEFVHTDFNRDRVINAMANETGAIPDGIHMVSFPDGMDPAGDRANIAKLGDGLPAAMLGGIEEMIRSEGIRWVIADVSMAWVTELAATVGVHVALFSTYSAAVVAHRLQVPKLIQDGVLDEIGNVRRNEMIQLRPTMPPVLAVELPWVTLSGTPDGRRMVIQNVFKTNPTISSAEVIICNTFQDIEPGALALVPNVLPVGPLEAPATSRLAGHFWPEDTTCLAWLDEQDACSVVYVAFGSFTVFDMARVQELADGLVLSGRPFLWVIRQNFTNGAGEGWLEEFRHRVSGKGMIVGWAPQQSVLSHPSIACFVSHCGWNSTMEGLRHGVPFLCWPYFADQYCNQSYICNVWGTGVKLQADERGVVTKEEIKNKVEQLVDDKEIKARAAKWKHAACTSIAEGGSSHENLLKFVNLLREQ
notes: full-length cDNA in pET21a (NdeI/NotI), E. coli BL21(DE3) pLysS, crude extract; WYJ allele A246, A349
On to B1, for which the figures for the Km in data set [3] and in data set [4] were 25.54 ± 5.43 µM and 51.06 ± 7.814 µM, respectively.
